Test results from patent publication US20080234337A1, “Preventive and/or Remedy for Hyperkalemia Containing Ep4 Agonist” (ONO PHARMACEUTICAL CO., LTD., priority 2004, published 2008).

Target: T1, EP4 (Cavia porcellus, UniProt Q1HG69)
T1 construct: Tissue samples including submucosal ganglia and mucosa were obtained by removal of myenteric plexus; from tissue; host or cells: guinea pig distal colon (mucosa with submucosal ganglia), mounted in Ussing flux chambers
Experiment: Short-circuit current (Isc) measurement of colonic ion transport in guinea pig distal colon tissue using Ussing flux chamber (investigation of EP4 agonistic activity)
Format: cell-based

T1 sequence (Q1HG69 1-487): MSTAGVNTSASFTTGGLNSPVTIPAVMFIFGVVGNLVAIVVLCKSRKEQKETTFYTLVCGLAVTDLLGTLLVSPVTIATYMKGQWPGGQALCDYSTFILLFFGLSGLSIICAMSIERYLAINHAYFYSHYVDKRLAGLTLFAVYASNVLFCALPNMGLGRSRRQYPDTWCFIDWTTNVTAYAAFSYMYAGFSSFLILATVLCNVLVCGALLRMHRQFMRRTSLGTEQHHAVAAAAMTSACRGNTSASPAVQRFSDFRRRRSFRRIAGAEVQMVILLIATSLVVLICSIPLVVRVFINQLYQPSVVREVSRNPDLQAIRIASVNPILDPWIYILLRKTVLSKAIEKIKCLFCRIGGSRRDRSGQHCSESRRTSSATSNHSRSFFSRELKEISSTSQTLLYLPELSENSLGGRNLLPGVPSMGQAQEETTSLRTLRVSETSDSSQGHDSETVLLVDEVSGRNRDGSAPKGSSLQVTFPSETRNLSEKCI

SMILES	decrease of short-circuit current (Isc) in presence of EP4 antagonist (PGE2 at low concentration plus EP4 antagonist (not named))	change of short-circuit current (Isc) (added into serosal chamber at 10^-5 mol/L, tetrodotoxin and piroxicam pretreatment, FIG. 1)	change of short-circuit current (Isc) (added into serosal chamber at 10^-6 mol/L, tetrodotoxin and piroxicam pretreatment, FIG. 1)	change of short-circuit current (Isc) (added into serosal chamber at from 10^-8 to 10^-7 mol/L, tetrodotoxin and piroxicam pretreatment, FIG. 1)	change of short-circuit current (Isc) (low concentration)	potassium secretion (suggested by decrease of Isc) (low concentration)	change of short-circuit current (Isc) (addition of test compound into serosal chamber, concentration not given, FIG. 3)
CCCCC[C@H](O)/C=C/[C@H]1[C@H](O)CC(=O)[C@@H]1C/C=C\CCCC(=O)O [PGE2]	countered by EP4 antagonist	biphasic [Transient phase, Sustained Phase] change of short-circuit current (Isc)	temporary increase of Isc	decrease of Isc	decrease of short-circuit current (Isc)	promoted the potassium secretion	
COCc1cccc(C[C@H](O)/C=C/[C@H]2[C@H](O)CC(=O)[C@@H]2SCCCSCC(=O)O)c1 [compound 1, ({3-[((1R,2S,3R)-3-hydroxy-2-{(1E,3S)-3-hydroxy-4-[3-(methoxymethyl)phenyl]but-1-enyl}-5-oxocyclopentyl)sulfanyl]propyl}sulfanyl)acetic acid]							decrease of short-circuit current (Isc)
